Experimental data from patent publication US9018214B2, “Bicyclic heterocycle compounds and their uses in therapy” (Astex Therapeutics Limited, priority 2011, dated 2015).
Where a name gives a salt, the structure may show the parent alone. Read-outs that look alike come from different tables or passages of the source.

How the values were obtained:
[1] = target: BIR3 domain of human XIAP (residues 252-350) (Homo sapiens (Human), UniProt P98170); test: XIAP in vitro competitive displacement binding assay (fluorescence polarization); conditions: for IC50: read-out: IC50 or PI Xiap: IC50; for inhibition at 0.04 µM: 1 h, read-out: IC50 or PI Xiap: PI
[2] = target: BIR3 domain of human cIAP-1 (residues 267-363) (Homo sapiens (Human), UniProt Q13490); test: cIAP-1 in vitro competitive displacement binding assay (fluorescence polarization; Probe A AVPIK(5&6FAM)-amide or Probe B AbuRPFK(5&6FAM)-amide); conditions: for inhibition at […]: 3 h, read-out: IC50 or PI cIAP1: PI
[3] = tested on: EVSA-T (human breast carcinoma); test: Anti-proliferative activity, Alamar Blue assay, EVSA-T; assay type: cell-based; conditions: Homo sapiens, EVSA-T, read-out: EVSA-T prolif (EC50)
[4] = Probe B AbuRPFK(5&6FAM)-amide, read-out: IC50 or PI cIAP1: IC50
[5] = read-out: IC50 or PI cIAP1: IC50

## Cc1nc(C)n(C[C@H]2CN[C@H](C)CN2CC(=O)N2CC(C)(C)c3cnc(Cc4ccc(F)cc4F)cc32)n1 [Example 206, 1-{6-[(2,4-Difluorophenyl)methyl]-3,3-dimethyl-1H,2H,3H-pyrrolo[3,2-c]pyridin-1-yl}-2-[(2R,5R)-2-[(dimethyl-1H-1,2,4-triazol-1-yl)methyl]-5-methylpiperazin-1-yl]ethan-1-one hydrochloride]
[1]
  IC50: 79 nM
[2]; Probe B, @ 0.012 μM
  inhibition at […]: 97%
[3]; 72 hours, Alamar Blue
  EC50: 1.7 nM

## C[C@@H]1CN(CC(=O)N2CC(C)(C)c3cnc(Cc4ccc(F)cc4F)cc32)[C@@H](CN2CCC(=O)C2)CN1 [Example 207, 1-{[(2R,5R)-1-(2-{6-[(2,4-Difluorophenyl)methyl]-3,3-dimethyl-1H,2H,3H-pyrrolo[3,2-c]pyridin-1-yl}-2-oxoethyl)-5-methylpiperazin-2-yl]methyl}pyrrolidin-3-one dihydrochloride]
[1]
  IC50: 57 nM
[2]
  inhibition at […]: 98%
[3]; 72 h
  EC50: 4 nM

## C[C@@H]1CN(CC(=O)N2CC(C)(C)c3cnc(Cc4ccc(F)cc4F)cc32)[C@@H](CN2CCC(F)(F)C2)CN1 [Example 208, 1-{6-[(2,4-Difluorophenyl)methyl]-3,3-dimethyl-1H,2H,3H-pyrrolo[3,2-c]pyridin-1-yl}-2-[(2R,5R)-2-[(3,3-difluoropyrrolidin-1-yl)methyl]-5-methylpiperazin-1-yl]ethan-1-one dihydrochloride]
[1]
  IC50: 64 nM
[2]
  inhibition at […]: 99%
[3]; 72 h
  EC50: 4 nM

## C[C@@H]1CN(CC(=O)N2CC(C)(C)c3cnc(Cc4ccc(F)cc4F)cc32)[C@@H](CN2CCOC2=O)CN1 [Example 209, 3-{[(2R,5R)-1-(2-{6-[(2,4-Difluorophenyl)methyl]-3,3-dimethyl-1H,2H,3H-pyrrolo[3,2-c]pyridin-1-yl}-2-oxoethyl)-5-methylpiperazin-2-yl]methyl}-1,3-oxazolidin-2-one dihydrochloride]
[1]
  IC50: 47 nM
[2]
  inhibition at […]: 90%
[3]; 72 h
  EC50: 19 nM

## CC(C)C(F)(F)c1cc2c(cn1)C(C)(C)CN2C(=O)CN1C[C@@H](C)NC[C@@H]1CN1CCCC1=O [Example 211, 1-{[(2R,5R)-1-{2-[6-(1,1-Difluoro-2-methylpropyl)-3,3-dimethyl-1H,2H,3H-pyrrolo[3,2-c]pyridin-1-yl]-2-oxoethyl}-5-methylpiperazin-2-yl]methyl}pyrrolidin-2-one hydrochloride]
[1]
  IC50: 46 nM
[2]
  IC50: < 1000 nM
[2]; [4]
  IC50: 22 nM
[3]; 72 hours, Alamar Blue
  EC50: 630 nM

## C[C@@H]1CN(CC(=O)N2CC(C)(C)c3cnc(C(F)(F)C4CC4)cc32)[C@@H](CN2CCCC2=O)CN1 [Example 212, 1-{[(2R,5R)-1-{2-[6-(Cyclopropyldifluoromethyl)-3,3-dimethyl-1H,2H,3H-pyrrolo[3,2-c]pyridin-1-yl]-2-oxoethyl}-5-methylpiperazin-2-yl]methyl}pyrrolidin-2-one hydrochloride]
[1]
  IC50: 45 nM
[2]
  IC50: < 1000 nM
[2]; [4]
  IC50: 14 nM
[3]; 72 hours, Alamar Blue
  EC50: 270 nM

## C[C@@H]1CN(CC(=O)N2CC(C)(C)c3cnc(C(F)(F)c4ccccc4)cc32)[C@@H](CN2CC[C@@H](F)C2)CN1 [Example 213, 1-{6-[Difluoro(phenyl)methyl]-3,3-dimethyl-1H,2H,3H-pyrrolo[3,2-c]pyridin-1-yl}-2-[(2R,5R)-2-{[(3R)-3-fluoropyrrolidin-1-yl]methyl]-5-methylpiperazin-1-yl]ethan-1-one dihydrochloride]
[1]
  inhibition at 0.04 µM: 61%
[2]
  inhibition at […]: 82%
[3]; 72 hours, Alamar Blue
  EC50: 6 nM

## CCC(F)(F)c1cc2c(cn1)C(C)(C)CN2C(=O)CN1C[C@@H](C)NC[C@@H]1CN1CC[C@@H](F)C1 [Example 214, 1-[6-(1,1-Difluoropropyl)-3,3-dimethyl-1H,2H,3H-pyrrolo[3,2-c]pyridin-1-yl]-2-[(2R,5R)-2-{[(3R)-3-fluoropyrrolidin-1-yl]methyl]-5-methylpiperazin-1-yl]ethan-1-one hydrochloride]
[1]
  IC50: 82 nM
[2]
  IC50: < 1000 nM
[2]; [4]
  IC50: 24 nM
[3]; 72 hours, Alamar Blue
  EC50: 190 nM

## C[C@@H]1CN(CC(=O)N2CC(C)(C)c3cnc(C(F)(F)c4ccccc4)cc32)[C@@H](CN2C(=O)CCC2=O)CN1 [Example 218, 1-{[(2R,5R)-1-(2-{6-[Difluoro(phenyl)methyl]-3,3-dimethyl-1H,2H,3H-pyrrolo[3,2-c]pyridin-1-yl}-2-oxoethyl)-5-methylpiperazin-2-yl]methyl}pyrrolidine-2,5-dione dihydrochloride]
[1]
  IC50: 61 nM
[2]
  inhibition at […]: 78%
[3]; 72 h
  EC50: 65 nM

## C[C@@H]1CN(CC(=O)N2CC(C)(C)c3cnc(Cc4ccc(F)cc4F)cc32)[C@@H](CN2CCOCC2)CN1 [Example 219, 1-{6-[(2,4-Difluorophenyl)methyl]-3,3-dimethyl-1H,2H,3H-pyrrolo[3,2-c]pyridin-1-yl}-2-[(2R,5R)-5-methyl-2-(morpholin-4-ylmethyl)piperazin-1-yl]ethan-1-one dihydrochloride]
[1]
  IC50: 53 nM
[2]
  inhibition at […]: 93%
[3]; 72 h
  EC50: 5 nM

## C[C@@H]1CN(CC(=O)N2CC(C)(C)c3ncc(C(F)(F)c4ccccc4)cc32)[C@@H](CN2CC[C@@H](F)C2)CN1 [Example 221, 1-{6-[Difluoro(phenyl)methyl]-3,3-dimethyl-1H,2H,3H-pyrrolo[3,2-b]pyridin-1-yl}-2-[(2R,5R)-2-{[(3R)-3-fluoropyrrolidin-1-yl]methyl}-5-methylpiperazin-1-yl]ethan-1-one dihydrochloride]
[1]
  IC50: 73 nM
[2]
  inhibition at […]: 78%
[3]; 72 h
  EC50: 54 nM

## C[C@@H]1CN(CC(=O)N2CC(C)(C)c3ncc(C(C)(F)F)cc32)[C@@H](CN2CCc3cccnc32)CN1 [Example 222, 1-[6-(1,1-Difluoroethyl)-3,3-dimethyl-1H,2H,3H-pyrrolo[3,2-b]pyridin-1-yl]-2-[(2R,5R)-5-methyl-2-{1H,2H,3H-pyrrolo[2,3-b]pyridin-1-ylmethyl}piperazin-1-yl]ethan-1-one dihydrochloride]
[1]
  IC50: 220 nM
[2]
  IC50: < 1000 nM
[2]; [5]
  IC50: 140 nM
[3]; 72 h
  EC50: 9600 nM

## CCCC(F)(F)c1cnc2c(c1)N(C(=O)CN1C[C@@H](C)NC[C@@H]1CN1CC[C@@H](F)C1)CC2(C)C [Example 223, 1-[6-(1,1-Difluorobutyl)-3,3-dimethyl-1H,2H,3H-pyrrolo[3,2-b]pyridin-1-yl]-2-[(2R,5R)-2-{[(3R)-3-fluoropyrrolidin-1-yl]methyl}-5-methylpiperazin-1-yl]ethan-1-one hydrochloride]
[1]
  IC50: 120 nM
[2]; Probe B, @ 0.012 μM
  inhibition at […]: 62%
[3]; 72 hours, Alamar Blue
  EC50: 81 nM

## C[C@@H]1CN(CC(=O)N2CC(C)(C)c3cnc(C(F)(F)c4ccccc4)cc32)[C@@H](CN2CCOCC2)CN1 [Example 224, 1-{6-[Difluoro(phenyl)methyl]-3,3-dimethyl-1H,2H,3H-pyrrolo[3,2-c]pyridin-1-yl}-2-[(2R,5R)-5-methyl-2-(morpholin-4-ylmethyl)piperazin-1-yl]ethan-1-one dihydrochloride]
[1]
  inhibition at 0.04 µM: 77%
[2]
  inhibition at […]: 83%
[3]; 72 hours, Alamar Blue
  EC50: 19 nM

## CC(C)CC(F)(F)c1cc2c(cn1)C(C)(C)CN2C(=O)CN1C[C@@H](C)NC[C@@H]1CN1CCCC1=O [Example 225, 1-{[(2R,5R)-1-{2-[6-(1,1-Difluoro-3-methylbutyl)-3,3-dimethyl-1H,2H,3H-pyrrolo[3,2-c]pyridin-1-yl]-2-oxoethyl}-5-methylpiperazin-2-yl]methyl}pyrrolidin-2-one hydrochloride]
[1]; @ 0.04 μM
  inhibition at 0.04 µM: 62%
[2]; Probe B, @ 0.012 μM
  inhibition at […]: 72%
[3]; 72 hours, Alamar Blue
  EC50: 48 nM

## C[C@@H]1CN(CC(=O)N2CC(C)(C)c3ncc(C(F)(F)C4CCC4)cc32)[C@@H](CN2CCCC2=O)CN1 [Example 226, 1-{[(2R,5R)-1-{2-[6-(Cyclobutyldifluoromethyl)-3,3-dimethyl-1H,2H,3H-pyrrolo[3,2-b]pyridin-1-yl]-2-oxoethyl}-5-methylpiperazin-2-yl]methyl}pyrrolidin-2-one dihydrochloride]
[1]
  IC50: 46 nM
[2]
  IC50: < 1000 nM
[2]; [5]
  IC50: 21 nM
[3]; 72 h
  EC50: 400 nM

## CCCC(F)(F)c1cc2c(cn1)C(C)(C)CN2C(=O)CN1C[C@@H](C)NC[C@@H]1CN1CCCC1=O [Example 227, 1-{[(2R,5R)-1-{2-[6-(1,1-Difluorobutyl)-3,3-dimethyl-1H,2H,3H-pyrrolo[3,2-c]pyridin-1-yl]-2-oxoethyl}-5-methylpiperazin-2-yl]methyl}pyrrolidin-2-one hydrochloride]
[1]; @ 0.04 μM
  inhibition at 0.04 µM: 60%
[2]; Probe B, @ 0.012 μM
  inhibition at […]: 78%
[3]; 72 hours, Alamar Blue
  EC50: 27 nM

## C[C@@H]1CN(CC(=O)N2CC(C)(C)c3ncc(C(C)(F)F)cc32)[C@@H](CN2CCN(C)C(=O)C2)CN1 [Example 228, 4-{[(2R,5R)-1-{2-[6-(1,1-Difluoroethyl)-3,3-dimethyl-1H,2H,3H-pyrrolo[3,2-b]pyridin-1-yl]-2-oxoethyl}-5-methylpiperazin-2-yl]methyl}-1-methylpiperazin-2-one dihydrochloride]
[1]
  IC50: 99 nM
[2]
  IC50: < 1000 nM
[2]; [5]
  IC50: 24 nM
[3]; 72 h
  EC50: 680 nM

## CC(C)CC(F)(F)c1cc2c(cn1)C(C)(C)CN2C(=O)CN1C[C@@H](C)NC[C@@H]1CN1CCOCC1 [Example 229, 1-[6-(1,1-Difluoro-3-methylbutyl)-3,3-dimethyl-1H,2H,3H-pyrrolo[3,2-c]pyridin-1-yl]-2-[(2R,5R)-5-methyl-2-(morpholin-4-ylmethyl)piperazin-1-yl]ethan-1-one hydrochloride]
[1]; @ 0.04 μM
  inhibition at 0.04 µM: 53%
[2]; Probe B, @ 0.012 μM
  inhibition at […]: 73%
[3]; 72 hours, Alamar Blue
  EC50: 38 nM
